# From patent US8778886B2, “Methods of making and using a cell penetrating peptide for enhanced delivery of nucleic acids, proteins, drugs, and adenovirus to tissues and cells, and compositions and kits” (Tufts University, priority 2007, dated 2014)
# Residues, ends and D or L forms follow the SMILES beside them. No end group written: not given here. *: point of attachment. FITC = O=C1OC2(c3ccc(O)cc3Oc3cc(O)ccc32)c2ccc(NC(=S)*)cc21
# Experiments:
# [1] = tested on: cornea, sclera, optic nerve; experiment: Topical application of L-POD to whole mouse eye in vivo; set-up: species or system C57BL6/6J mice; conditions: for staining of external ocular tissues: topical, 10 nmol, 45 min
# Description: (§1) The use of animals in this work was in accordance with the ARVO Statement for the Use of Animals in Ophthalmic and Vision Research. C57BL/6J mice were purchased from Jackson Laboratories, bred and maintained in a 12-hour light-dark cycle and cared for in accordance with federal, state and local regulations. For each Example herein at least 4 mice (8 eyes) were investigated, yielding roughly similar results. Mice were anesthetized by […] injection of xylazine (10 mg/ml)/ketamine (1 mg/ml). Subretinal or intravitreal injections were performed with a 32 G needle attached to a 5 μl glass syringe (Hamilton) by a trans scleral trans choroidal approach to deliver 0.25 nmole of L-POD per eye. For topical delivery to cornea, male C57BL6/6J mice at 6 weeks of age were anesthetized by intraperitoneal injection of ketamine/xylazine and 10 nmoles of either L-POD or lissamine only were dropped on the cornea and incubated for 45 minutes or 24 hours. Upon completion of the treatment, the animal was sacrificed by CO2 inhalation followed by cervical dislocation and the eyes harvested and washed three times in PBS. Fluorescent and bright field images were taken of each eye using a Nikon C-FMC microscope prior to fixation. Eyes were fixed overnight at 4° C. in 4% paraformaldehyde and embedded in Optimal Cutting Temperature Compound and 14 μm sections were collected using a Microm 550 cryostat.
# To assess penetration of the cornea and sclera with L-POD, whole mouse eye was incubated in vivo with 10 nmol L-POD for 45 min followed by harvesting of ocular tissues.
# [2] = tested on: Human embryonic retinal (HER) 911 cells; experiment: L-POD uptake by HER cells (microscopy, lissamine-positive cells by FACS); type: cell-based
# Description: (§2) HER cells were seeded on Lab Tek-II chamber slides and grown to about 70% confluence. Cells were washed twice with PBS and incubated with […] L-POD for 0, 5, 15, 30, 45, and 60 minutes or 1 nmol Lissamine only for 60 minutes. Cells were fixed for 15 minutes in formalin at room temperature. Cells for live imaging were grown on 24 well plates and incubated with […] of L-POD. Following incubation, cells were washed three times with PBS, incubated in phenol red-free DMEM supplemented with 2% FBS. Cells were visualized by light and fluorescent microscopy using either an Olympus IX51 (live cells) or an Olympus BX51 (fixed cells) with DIC, RFP, and GFP filters. Images were obtained using a Retiga 2000R FAST camera and QCapture Pro 5.0 (QImaging, BC, Canada). To measure L-POD uptake in the presence of trypsin, 0.2×10^6 HER cells were incubated with 2.0 nmole L-POD in media for 15 minutes at 37° C. followed by incubation in 2.5 mg/ml trypsin for 12 minutes at 37° C. For analysis of uptake at 4° C., cells were cooled to 4° C. for 45 minutes prior to the addition of peptide and cold (4° C.) reagents were used for peptide administration. Following incubation with peptide, cells were washed twice with PBS and spun and resuspended in PBS for FACS analysis. For measurement of membrane permeabilization, HER cells were incubated with 2.0 nmole FITC-HBP for 30 minutes at 37° C., washed twice, isolated, and suspended in PBS with 1 μM PI. The number of PI-positive cells was analyzed by FACS. FACS analysis was performed using a FACSCalibur (Becton Dickinson). Examples were performed in triplicate and 10,000 events per sample were counted. Results were analyzed using CellQuest Pro software (Becton Dickinson).
# Human embryonic retinal (HER) 911 cells [Fallaux F J et al. 1996 Hum. Gene Ther. 7: 215-222] incubated with […] (8 μM) lissamine-conjugated POD (L-POD), followed by formalin fixation, became […] to 558 nm excitation (emission measured at 583 nm) within 1 min and appeared normal in bright field (FIG. 1 panel A). Within 5 min, L-POD was seen within the cytoplasm with both a diffuse cytoplasmic and slightly punctate pattern (Figure panel A).
# To determine whether L-POD was internalized or was non-specifically associated with the plasma membrane, HER cells incubated with 2 nmoles (8 μM) L-POD for 15 min were treated with trypsin at 37° C. prior to counting of lissamine-positive cells by FACS. […] Sensitivity of POD peptide to trypsin-mediated digestion was confirmed by incubation of […] of C-POD with trypsin prior to loading on an acrylamide gel (inset FIG. 1 panel C). Whereas 92.23±0.65% of HER cells were lissamine-positive when incubated with L-POD at 37° C., only 48.74±2.32% of cells were lissamine-positive when incubated with L-POD at 4° C. (FIG. 1 panel D).
# E. coli = experiment: Microbicidal activity, colony count after plating; type: cell-based; conditions: 2 hours at 37° C., plating on LB agar
# Description: (§3) Lissamine conjugated POD (L-POD) and either heparan sulfate or chondroitan sulfate were incubated together at each of molar ratios of 1:3.33, 1:6.67, and 1:8 in water for 30 minutes at room temperature. The complex was diluted in DMEM+2% FBS and added to 0.2×]06 HER cells for 5 minutes at 37° C. Following incubation, cells were trypsinized and suspended in PBS for FACS analysis as described above. To measure microbicidal activity of C-POD, XL-1 Blue cells (Stratagene, La Jolla, Calif.) were grown to mid logarithmic phase (OD600=0.600) and washed twice in a solution of 10 mM Tris, pH 7.4 and 5 mM Glucose. The cells were resuspended in 10 mL of the same solution and […] of the suspension was incubated with C-POD in a final volume of 50 μL. The peptide/bacteria cell solution was rocked for 2 hours at 37° C. The peptide-treated bacteria was diluted 1:4500 with LB broth, plated on agar, and grown overnight at 37° C. The following day, the bacterial colonies on each plate were counted to quantify peptide-related reduction in growth.
# Since endophthalmitis, an infection within the eye, is regularly a complicating factor in drug delivery to ocular tissues [Ho J et al. 2007 Int Opthalmol Clin 47: 199-208], C-POD was examined for potential microbicidal activities. E. coli cells grown to mid-log phase were incubated with either H20 only or C-POD suspended in H20 at concentrations ranging from 0.03 μM to 60 μM, and cell number was determined by plating samples on LB agar. […] Greater concentrations of C-POD completely eliminated bacterial growth.
# HER cells [3] = experiment: Inhibition of L-POD uptake by proteoglycans; type: cell-based, human
# Description: as §3
# To determine whether L-POD uses cell surface proteoglycans for binding and cell entry, L-POD was pre incubated with different amounts of either of the proteoglycans chondroitin sulfate or heparan sulfate, prior to addition to HER cells. Based on data from preliminary studies, ratios of L-POD:proteoglycan of 1:3.33, 1:6.67 and 1:8 were selected.
# In contrast, the uptake of a TRITC-conjugated peptide containing an integrin-binding RGD motif was not affected by pre-incubation with either proteoglycan (FIG. 3 panel A).
# neural retina = experiment: Subretinal / intravitreal delivery of L-POD and QDPOD to retina in vivo; set-up: species or system C57BL/6J mice; conditions: 2 hours
# Description: as §1, with “cryostat. […]” for “cryostat.”
# HER cells [4] = experiment: Membrane permeabilization, propidium iodide uptake after F-POD; type: cell-based, human; conditions: FACS, F-POD 0.2 to 2.0 μM (average), Triton-X100 1%
# Description: as §2, with “Following incubation with peptide, cells were washed twice with PBS and spun and resuspended in PBS for FACS analysis. For measurement of membrane permeabilization, HER cells were incubated with 2.0 nmole FITC-HBP for 30 minutes at 37° C., washed twice, isolated, and suspended in PBS with 1 μM PI.” left out, “FACS analysis was performed using a FACSCalibur (Becton Dickinson).” left out, “Dickinson). […]” for “Dickinson).”
compound,measurement,setting,value
lissamine [reference compound],staining of external ocular tissues,[1],weakly stained the cornea and sclera and did not stain the optic nerve
same,uptake by HER cells (microscopy),"[2]; lissamine only, fixed cells",no evidence of uptake
GGG(ARKKAAKA)4 [POD],concentration giving significant inhibition of bacterial growth,E. coli,0.3 µM
L-POD: N terminal lissamine conjugated GGG(ARKKAAKA)4 (SEQ ID NO: 1) (lissamine-GGGARKKAAKAARKKAAKAARKKAAKAARKKAAKA),uptake of L-POD (lissamine-positive cells),"HER cells [3]; chondroitin sulfate, 1:6.67",59.43±1.55%
same,uptake of L-POD (lissamine-positive cells),"HER cells [3]; chondroitin sulfate, 1:8",34.38±3.13%
same,uptake of L-POD (lissamine-positive cells),"HER cells [3]; chondroitin sulfate, L-POD:proteoglycan 1:3.33",71.24±1.77%
same,uptake of L-POD (lissamine-positive cells),"HER cells [3]; heparan sulfate, 1:3.33",78.60±0.35%
same,uptake of L-POD (lissamine-positive cells),"HER cells [3]; heparan sulfate, 1:6.67",57.78±2.83%
same,uptake of L-POD (lissamine-positive cells),"HER cells [3]; heparan sulfate, 1:8",44.37±2.17%
same,lissamine-positive cells,HER cells [3]; without pre incubation with any proteoglycan,90.07±0.64%
same,time to reach the optic nerve,[1]; administered topically,≤ 45 min
same,staining of external ocular tissues,[1],"bound strongly to the cornea, sclera and unexpectedly, also the optic nerve"
same,lissamine-positive cells,"[2]; 2 nmoles (8 μM) L-POD 15 min, with incubation with trypsin",90.10±1.89%
same,lissamine-positive cells,"[2]; 2 nmoles (8 μM) L-POD 15 min, without incubation with trypsin",92.23±0.65%
same,time until L-POD was seen within the cytoplasm,"[2]; 2 nmoles (8 μM) L-POD, formalin fixation",≤ 5 min
same,uptake of L-POD in the presence of inhibitors of endocytosis,"[2]; chlorpromazine, genistein, filipin",no significant reduction
same,lissamine-positive cells,[2]; incubated with L-POD at 4° C.,48.74±2.32%
same,lissamine-positive cells,[2]; incubated with L-POD at 37° C.,92.23±0.65%
same,transduction of neural retina,neural retina; intravitreal,approximately 85%
same,transduction of neural retina,neural retina; subretinal,approximately 40%
Triton-X100 [reference compound],PI-positive cells,HER cells [4],91.44±9.66%
C[C@H](NC(=O)[C@H](CCCCN)NC(=O)[C@H](C)NC(=O)[C@H](C)NC(=O)[C@H](CCCCN)NC(=O)[C@H](CCCCN)NC(=O)[C@H](CCCNC(=N)N)NC(=O)[C@H](C)NC(=O)[C@H](C)NC(=O)[C@H](CCCCN)NC(=O)[C@H](C)NC(=O)[C@H](C)NC(=O)[C@H](CCCCN)NC(=O)[C@H](CCCCN)NC(=O)[C@H](CCCNC(=N)N)NC(=O)[C@H](C)NC(=O)[C@H](C)NC(=O)[C@H](CCCCN)NC(=O)[C@H](C)NC(=O)[C@H](C)NC(=O)[C@H](CCCCN)NC(=O)[C@H](CCCCN)NC(=O)[C@H](CCCNC(=N)N)NC(=O)[C@H](C)NC(=O)[C@H](C)NC(=O)[C@H](CCCCN)NC(=O)[C@H](C)NC(=O)[C@H](C)NC(=O)[C@H](CCCCN)NC(=O)[C@H](CCCCN)NC(=O)[C@H](CCCNC(=N)N)NC(=O)[C@H](C)NC(=O)CNC(=O)CNC(=O)CNC(=S)Nc1ccc2c(c1)C(=O)OC21c2ccc(O)cc2Oc2cc(O)ccc21)C(=O)O [F-POD] ({FITC}-GGGARKKAAKAARKKAAKAARKKAAKAARKKAAKA-OH),PI-positive cells,HER cells [4],3.98±0.70%
